Data on one molecule can be found in patent US10273290B2, “Hydrocarbon double-stapled stabilized HIV-1 GP41 heptad repeat domain peptides” (DANA-FARBER CANCER INSTITUTE, INC., priority 2009, dated 2019).

A short description of data set [1]: Circular dichroism, α-helical content. The class given is physicochemical. To be noted: pH 2 versus pH 7. The method in brief:
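Far-UV CD spectra recorded at 20° C, 190-260 nm, 0.1 cm path, 10 accumulations. Percent α-helicity from mean residue ellipticity at 222 nm: 100×[θ]222/max[θ]222, with max[θ]222=−40,000×[1−(2.5/number of residues)]. Secondary-structure fractions also estimated by CDNN curve-fitting.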
In general terms: Circular dichroism is the unequal absorption of left and right circularly polarised light.

In the next data set the target is T1, chymotrypsin (Bos taurus, UniProt P00766).
T1 construct: purchased Sigma
The data set can be described thus: Protease resistance assay, chymotrypsin (LC/MS). The class given is in vitro ADME. To be noted: pH 7.4, 0.5 chymotrypsin, peptide 25 μM.

In data set [2] the test system is resistant primary R5 isolate YU2. As to the kind of experiment: Luciferase-based HIV-1 infectivity assay, YU2. The class given is cell-based. To be noted: compared to T649v. The source says:
Also the direct inhibitory activity of modified polypeptides and the antibodies targeted thereto can be quantified based upon their capacity to directly block HIV infection of CD4-positive and CCR5-expressing canine thymus cells. Recombinant HIV-1 viruses (eg. HXBc2, YU2, and additional strains available through the NIH AIDS Research and Reference Reagent Program) expressing firefly luciferase and containing the indicated envelope glycoproteins can be used to infect Cf2Th-CD4-CCR5/CXCR4 cells in the presence of serially diluted modified HIV-1 gp41 polypeptides or antibodies targeted thereto After 48 hours, the cells are lysed and luciferase activity is quantified (Si, Z. H., M. Cayabyab, and J. Sodroski, Journal of Virology, 2001. 75(9): p. 4208-4218 Si, Z. H., et al., PNAS, 2004. 101(14): p. 5036-5041). The identical experiment is performed with the amphotropic murine leukemia virus (AMLV), to monitor for any nonspecific effects of the modified polypeptides or antibodies. […]
HIV-1 infectivity assays were performed using known methods (Madani et al., 2007 Inhibition of human immunodeficiency virus envelope glycoprotein-mediated single cell lysis by low-molecular-weight antagonists of viral entry. J Virol, 81: 532-538; and Si et al., 2001 Envelope glycoprotein determinants of neutralization resistance in a simian-human immunodeficiency virus (SHIV-HXBc2P 3.2) derived by passage in monkeys. J Virol, 75:4208-4218; both incorporated herein by reference). […] D-luciferin (50 μL of 1 mM stock in 100 μL luciferin buffer) is then added to each well and luciferase activity measured using a luminometer (EG&G Berthold).
To assess the functional impact of hydrocarbon stapling on gp41-based fusion inhibitor activity, SAH-gp41 peptides were tested and compared to their unmodified counterparts in a luciferase-based HIV-1 infectivity assay. Recombinant HIV-1 bearing the envelope glycoproteins from three distinct HIV-1 strains, HXBc2, ADA, and HXBc2P 3.2, and a negative control virus bearing the amphotropic murine leukemia virus (A-MLV) envelope glycoproteins, were evaluated. […]

Data set [3] concerns HIV-1 HXBc2 virus bearing HR1 double mutations V38A/N42T and V38E/N42S. The data set can be described thus: HIV-1 infectivity assay, enfuvirtide-resistant HR1 double mutants. It is filed as cell-based. The protocol:
HIV-1 infectivity assays were performed using known methods (Madani et al., 2007 Inhibition of human immunodeficiency virus envelope glycoprotein-mediated single cell lysis by low-molecular-weight antagonists of viral entry. J Virol, 81: 532-538; and Si et al., 2001 Envelope glycoprotein determinants of neutralization resistance in a simian-human immunodeficiency virus (SHIV-HXBc2P 3.2) derived by passage in monkeys. J Virol, 75:4208-4218; both incorporated herein by reference). […] Virus-containing supernatants were harvested 24-30 hr after transfection, filtered, aliquoted, and stored at −80° C. Target cells were seeded at a density of 6×10^3 cells/well in 96-well plates 24 hours prior to infection. Cf2Th-CD4-CCR5 cells were used for infections by viruses with the ADA, YU2, and A-MLV envelope glycoproteins, and Cf2Th-CD4-CXCR4 cells used for HXBc2, HXBc2P 3.2, and A-MLV. On the day of infection, the structured peptides (0-3 μM) were added to recombinant viruses (10,000 RT units) to a final volume of 50 μL and incubated at 37° C. for 30 min. Media was then removed and the target cells incubated with virus-peptide mixture for 48 hours at 37° C. The media was again removed and the cells lysed with 30 μL of passive lysis buffer (Promega) and three freeze-thaw cycles.

The structures appear in SMILES notation. Bridge positions count the residues as written; N and C are the ends. Square brackets hold non-standard residues; d marks the D form. Peptide text beside a SMILES is read from it. S5 = C=CCCC[C@](C)(N)C(=O)O; Nle = CCCC[C@H](N)C(=O)O

`CCCC[C@H](NC(C)=O)C(=O)N[C@H](C(=O)N[C@@H](Cc1c[nH]c2ccccc12)C(=O)N[C@@]1(C)CCCC=CCCC[C@@](C)(C(=O)N[C@@H](CCC(=O)O)C(=O)N[C@H](C(=O)N[C@@H](CC(N)=O)C(=O)N[C@@H](CC(N)=O)C(=O)N[C@@H](Cc2ccc(O)cc2)C(=O)N[C@H](C(=O)N[C@@H](CO)C(=O)N[C@@H](CC(C)C)C(=O)N[C@H](C(=O)N[C@@H](Cc2c[nH]cn2)C(=O)N[C@@H](CO)C(=O)N[C@@H](CC(C)C)C(=O)N[C@H](C(=O)N[C@@H](CCC(=O)O)C(=O)N[C@@H](CCC(=O)O)C(=O)N[C@@H](CO)C(=O)N[C@@H](CCC(N)=O)C(=O)N[C@@H](CC(N)=O)C(=O)N[C@@H](CCC(N)=O)C(=O)N[C@@]2(C)CCCC=CCCC[C@@](C)(C(=O)N[C@@H](CCC(N)=O)C(=O)N[C@@H](CCC(=O)O)C(=O)N[C@@H](CC(C)C)C(=O)N[C@@H](CC(C)C)C(=O)N[C@@H](CCC(=O)O)C(N)=O)NC(=O)[C@H](CC(N)=O)NC(=O)[C@H](CCCCN)NC(=O)[C@H](CCC(=O)O)NC2=O)[C@@H](C)CC)[C@@H](C)CC)[C@@H](C)O)[C@@H](C)CC)NC(=O)[C@H](CC(=O)O)NC(=O)[C@H](Cc2c[nH]c3ccccc23)NC(=O)[C@H](CCC(=O)O)NC1=O)[C@@H](C)O` [SAH-gp41(626-662)(A, F)] (Ac-[Nle]TW[S5]EWD[S5]EINNYTSLIHSLIEESQNQ[S5]EKN[S5]QELLE-NH2; staple 4-8, 28-32; N-terminus and C-terminus assumed): in data set [1], the “α-helicity, in words” value is “even greater α-helicity at pH 2 than at pH 7”. The Half-Life on chymotrypsin stood at 5.02 h. In addition, the “anti-YU2 activity, in words” value in data set [2] is listed as “enhanced anti-YU2 activity”. Further, the “functional activity against HR1 double-mutant HIV-1, in words” value in data set [3] is given as “dose-responsively suppressed HIV-1 infectivity”.
